In brackets after ≈: the same amount, converted by molar mass. Some results are limits rather than exact numbers.

The record followed here is ChEMBL document CHEMBL1158314, “Antimycobacterial cycloartanes from Borrichia frutescens” (J Nat Prod, 1996).

Assay [1] has as its system Mycobacterium tuberculosis. The assay can be described thus: Antimycobacterial activity against Mycobacterium tuberculosis H37Rv after 3 days by radiorespirometric assay. In kind it is functional. The conditions noted are these: 72 h.
Another assay deals with Vero. The experiment in a line: Cytotoxicity against african green monkey Vero cells after 72 hrs. In kind it is cell-based. The note with it: Chlorocebus sabaeus.

`CC(C)=C[C@H](O)C[C@@H](C)[C@H]1CC[C@@]2(C)C3=C(CC[C@]12C)[C@@]1(C)CCC(=O)C(C)(C)[C@@H]1CC3` returned an MIC in assay [1] of 64 µg/mL (≈ 145 µM). In the assay with Vero, this compound gave an IC50 of 104 µg/mL (≈ 235 µM).

As for `C[C@H](CC[C@H]1OC1(C)C)[C@H]1CC[C@@]2(C)[C@@H]3CC[C@H]4C(C)(C)C(=O)CC[C@@]45C[C@@]35CC[C@]12C`, the MIC in assay [1] is 8 µg/mL (≈ 18.2 µM). In addition, the IC50 in the assay on Vero was found to be 71.8 µg/mL (≈ 163 µM).

In assay [1], `CC(=O)O[C@H]1CC[C@]23C[C@]24CC[C@]2(C)[C@@H]([C@H](C)CC[C@H]5OC5(C)C)CC[C@@]2(C)[C@@H]4CC[C@H]3C1(C)C` yielded an MIC above 128 µg/mL.

Turning to `C[C@H](CC[C@H]1OC1(C)C)[C@H]1CC[C@@]2(C)[C@@H]3CC[C@H]4C(C)(C)[C@@H](O)CC[C@@]45C[C@@]35CC[C@]12C`, in assay [1], 8 µg/mL (≈ 18.1 µM) was the least that counted as inhibitory (MIC). In addition, the IC50 with Vero is 39.8 µg/mL (≈ 89.9 µM).

In assay [1], `CC(C)(O)[C@@H]1CC[C@](C)([C@H]2C(O)C[C@@]3(C)[C@@H]4CC[C@H]5C(C)(C)C(=O)CC[C@@]56C[C@@]46CC[C@]23C)O1` (stereo partly specified) [ARGENTATINE A] came in with an MIC above 128 µg/mL.

Take `C[C@@H]1CC[C@H](C(C)(C)O)O[C@H]2C[C@@]3(C)[C@@H]4CC[C@H]5C(C)(C)C(=O)CC[C@@]56C[C@@]46CC[C@]3(C)[C@@H]12` [ARGENTATINE B]: in assay [1], the MIC was above 128 µg/mL.

Take `CC(=O)O[C@H]1C[C@@]2(C)[C@@H](C[C@@H](O)[C@H]3[C@@]4(C)CC[C@@H](O)[C@@H](C)[C@@H]4CC[C@@]32C)/C1=C(\CCC=C(C)C)C(=O)O` [FUSIDIC ACID]: 4 µg/mL (≈ 7.74 µM) was the least that counted as inhibitory in assay [1] (MIC). Moreover, in the assay with Vero, half-maximal inhibition (IC50) required 106 µg/mL (≈ 205 µM).
